# Reference: patent publication US7279300B2, “Protozoan rhomboid proteins” (priority 2002, dated 2007)
# Experiments:
# [1] = test system: Pf rhomboid-1; assay: Pf rhomboid-1 cleavage of GFP-tagged Spitz co-expressed in COS cells (western blot); assay type: cell-based, Plasmodium falciparum; conditions: serum-free medium supplemented with inhibitor, substrate Spitz
# Procedure: (§1) Plasmodium rhomboid activity was determined using published methods described in Urban et al Cell (2001) 107(2): 173-82 and WO02/093177. Briefly, Pf rhomboids-1 and -3 were co-expressed with GFP-tagged Spitz under control of a CMV promoter; as follows; COS cells were grown in DMEM medium (supplemented with 10% foetal calf serum), and transfected with FuGENE 6 Transfection Reagent (Roche). Cells were co-transfected in 35 mm culture wells with 25-250 ng of (a) rhomboid construct comprising the Pf-rhomboid-1 or -3 coding sequence inserted into the vector pcDNA 3.1+ (Invitrogen), and (b) substrate construct comprising the GFP-Spitz coding sequence inserted into pcDNA 3.1+ (Invitrogen). Empty plasmid was used to bring the total DNA to 1 μg per well. Construct (b) was transfected into COS cells in the absence of construct (a) as a control for endogenous cleavage of the substrate. 24-30 hours post-transfection, the medium was replaced with serum-free medium; this was harvested 24 hours later and cells were lysed in SDS-sample buffer. For some experiments, the serum-free medium was supplemented with the metalloprotease inhibitor batimastat (British Biotech) or ilomostat (Calbiochem) to minimize endogenous substrate cleavage in the assay. For inhibitor assays, a test compound may be included in the serum-free medium. […]
# [2] = test system: Pf rhomboid-3; assay: Pf rhomboid-3 cleavage of GFP-tagged Spitz co-expressed in COS cells (western blot); assay type: cell-based, Plasmodium falciparum; conditions: serum-free medium supplemented with inhibitor, substrate Spitz
# Procedure: as §1
structure (smiles),measurement,setting,value
CNC(=O)[C@H](Cc1ccccc1)NC(=O)[C@H](CC(C)C)[C@H](CSc1cccs1)C(=O)NO [batimastat],inhibition of Pf rhomboid-1 cleavage of Spitz,[1],not inhibited
same,inhibition of Pf rhomboid-3 cleavage of Spitz,[2],not inhibited
